Laboratory results as given in PubChem BioAssay AID1963840 (Molecular Pharmacology Branch, DTP, NCI, 2024).

Test system: 695427-040-R-J1-PDC complex spheroid viability
Assay: Anticancer human tumor 695427-040-R-J1-PDC patient-derived colon adenocarcinoma cell line growth inhibition [POLQ]
Settings: for IC50: curve of first compound; for viability, T/C: stronger effect = lower value
Summary of the method: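 PDC + HUVEC + MSC complex spheroids; POLQ inhibitors ± partner drugs; top conc. at/near clinical Cmax, else 10 microM (SN-38 1 microM), half-log dilutions; 37 degrees C, 5% CO2.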
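Further: spheroids exposed to compounds for seven days.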
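Wherever viability, T/C is given: 100% = DMSO vehicle control viability.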

CC1COCCN1c1cc(-c2ccnn2C)c2ccnc(-c3ccn[nH]3)c2n1 (configuration not stated) + COC1C(OC(N)=O)C(O)C(Oc2ccc3c(O)c(NC(=O)c4ccc(O)c(CC=C(C)C)c4)c(=O)oc3c2C)OC1(C)C
IC50 (second compound 0.0316 µM): 1210 nM | IC50 (second compound 0.1 µM): 1130 nM | IC50 (second compound 0.316 µM): 1560 nM | IC50 (second compound 1 µM): 748 nM | IC50 (second compound 3.16 µM): 1210 nM | IC50 (second compound 10 µM): 1470 nM | viability, T/C (second compound 0.0316 µM, first compound 0.0316 µM): 97.2% | viability, T/C (second compound 0.0316 µM, first compound 0.1 µM): 83.3% | viability, T/C (second compound 0.0316 µM, first compound 0.316 µM): 63.5% | viability, T/C (second compound 0.0316 µM, first compound 1 µM): 50.3% | viability, T/C (second compound 0.0316 µM, first compound 3.16 µM): 47% | viability, T/C (second compound 0.0316 µM, first compound 10 µM): 44.8% | viability, T/C (second compound 0.1 µM, first compound 0.0316 µM): 97.5% | viability, T/C (second compound 0.1 µM, first compound 0.1 µM): 81.1% | viability, T/C (second compound 0.1 µM, first compound 0.316 µM): 64.2% | viability, T/C (second compound 0.1 µM, first compound 1 µM): 49.9% | viability, T/C (second compound 0.1 µM, first compound 3.16 µM): 44.3% | viability, T/C (second compound 0.1 µM, first compound 10 µM): 44.7% | viability, T/C (second compound 0.316 µM, first compound 0.0316 µM): 104% | viability, T/C (second compound 0.316 µM, first compound 0.1 µM): 79.7% | viability, T/C (second compound 0.316 µM, first compound 0.316 µM): 61.4% | viability, T/C (second compound 0.316 µM, first compound 1 µM): 51.2% | viability, T/C (second compound 0.316 µM, first compound 3.16 µM): 48.5% | viability, T/C (second compound 0.316 µM, first compound 10 µM): 44.6% | viability, T/C (second compound 1 µM, first compound 0.0316 µM): 93.5% | viability, T/C (second compound 1 µM, first compound 0.1 µM): 85.9% | viability, T/C (second compound 1 µM, first compound 0.316 µM): 58.2% | viability, T/C (second compound 1 µM, first compound 1 µM): 49.4% | viability, T/C (second compound 1 µM, first compound 3.16 µM): 46.6% | viability, T/C (second compound 1 µM, first compound 10 µM): 41.8% | viability, T/C (second compound 3.16 µM, first compound 0.0316 µM): 95.8% | viability, T/C (second compound 3.16 µM, first compound 0.1 µM): 86.8% | viability, T/C (second compound 3.16 µM, first compound 0.316 µM): 63.3% | viability, T/C (second compound 3.16 µM, first compound 1 µM): 52.1% | viability, T/C (second compound 3.16 µM, first compound 3.16 µM): 47.6% | viability, T/C (second compound 3.16 µM, first compound 10 µM): 44.7% | viability, T/C (second compound 10 µM, first compound 0.0316 µM): 90.8% | viability, T/C (second compound 10 µM, first compound 0.1 µM): 80.6% | viability, T/C (second compound 10 µM, first compound 0.316 µM): 65.9% | viability, T/C (second compound 10 µM, first compound 1 µM): 47.5% | viability, T/C (second compound 10 µM, first compound 3.16 µM): 51% | viability, T/C (second compound 10 µM, first compound 10 µM): 46.2%
